# Results reported in patent US9995679B2, “Targeted probes of cellular physiology” (Carnegie Mellon University, priority 2010, dated 2018).
# Entries after “also recorded” stand apart in the source; their conditions may differ.
# What was measured:
# [1] = test system: selected modules (FAP) that activate malachite green; test: Fluorogen activation by selected FAP modules (switching ratio); type: biochemical; settings: in buffer
# From the text: Malachite green can serve as an acceptor, as we already have selected modules that activate it with switching ratios of >15,000 fold in buffer. Additional fluorogens may be designed and synthesized. Unsymmetric polymethine dyes, and analogs of indocyanine green may be used as fluorogens, as can many of the polarity sensing dyes (e.g. merocyanine and styryl dyes) with far-red and near IR emission. Fluorogens are screened for nonspecific activation in cell lysate before incorporation into the biosensor composition. Quenching and activation by selected FAP modules are characterized in buffer and cell lysate to determine the activation ratio. FAP/biosensor pairs with acceptable switching ratios are characterized by FCS and TIRF-single molecule microscopy.
# [2] = test system: malachite green binding FAP clone; test: Fluorescence correlation spectroscopy (FCS) of dye with MG-binding FAP; settings: 500-fold molar excess of protein, FIG. 6
# From the text: To assess the feasibility of this approach, two key criteria have been met. First, the spectral properties of Rhod-2 are almost identical to the CY3 that has already been used as a successful donor molecule. Second, the rhodamine moiety, which is structurally similar to malachite green, has been shown not to bind or block binding of the MG-binding FAP module. […] These findings support the design of this probe.
# [3] = Calcium titration curve of MG-PEG7-Rhod2 sodium salt with dL5, fluorescence by plate reader; type: binding; settings: with dL5 (tandem dimer of L5-MG E52D L91S); free Ca 0-39 μM calibration buffers; FIG. 15
# Method: A calcium titration curve for MG-PEG7-Rhod2 sodium salt (compound 18 of Example 8, was measured.
# Compound 18 and 2 μL of dL5 (A tandem dimer of L5-MG E52D L91S (FIG. 1A) separated by a G4S linker) is dissolved in each 600 μL of 0 calcium solution^1 (solution A, Invitrogen™ Cat. no. C-3008MP Calcium Calibration Buffer Kit #1) and 600 μL 39 calcium solution (solution B, Invitrogen™ Cat. no. C-3008MP Calcium Calibration Buffer Kit #1). Each volume of A and B solutions was added into 96 well black plate as described in Table 1.
# And then, each solution was measured fluorescence by plate reader (TECAN safire2).
compound,measurement,setting,value
CN(C)c1ccc(C(=C2C=CC(=[N+](C)C)C=C2)c2ccccc2)cc1 [Malachite green],switching ratio (fluorescence activation by FAP),[1],"> 15,000 fold"
CCN(CC)c1ccc2c(-c3ccccc3C(=O)O)c3ccc(=[N+](CC)CC)cc-3oc2c1.[Cl-] [rhodamine B],binding to / inhibition of MG binding of the malachite green binding FAP,[2],does not associate with the malachite green binding clone; also recorded: neither binds to nor inhibits normal binding
MG-PEG7-Rhod2 Sodium Salt [Compound 18],mid-point for calcium binding (ratio of rhod2 excitation peak to MG excitation peak at ~640 nm vs free calcium),[3],0.5 micro molar
